Data as given in patent US20210139610A1, “COMPOSITIONS AND METHODS FOR MEDIATING EPS” (priority 2018, published 2021).
Entries after “also recorded” stand apart in the source; their conditions may differ.

Assays:
[1] = test system: NTHI biofilms in the middle ear; experiment: Chinchilla model of otitis media due to NTHI, middle ear biofilm scoring; format: in vivo; conditions: 5 μg to middle ears at 4 and 5 days post infection, scored 24 h later
Experimental: FIGS. 39A-39B: HMGB1 promotes biofilm resolution in an experimental model (chinchilla host) of OM. Diluent or 5 μg rHMGB1 or mHMGB1 were delivered directly to middle ears of chinchillas at 4 and 5 days post infection with NTHI. Animals were sacrificed 24 h later, and their middle ears were imaged (FIG. 39A) and blindly scored (FIG. 39B) based on the criteria described in the bottom of (FIG. 39A). Bars represent SEM. ***P<0.001.

DNABII proteins = DNABII proteins in NTHI biofilm and culture media (immunofluorescence, Western blot); format: cell-based, Non-typeable Haemophilus influenzae; conditions: HMGB1 treatment at 24 h, read at 40 h
Experimental: FIGS. 38A-38C: HMGB1 displaces DNABII proteins thereby disrupting NTHI biofilms. Non-typeable Haemophilus influenzae biofilms were grown in supplemented BHI media in 8 well chambered coverglass slides at 37° C. and 5% CO2. After 24 h, biofilms were treated as indicated. (FIG. 38A) After 40 h, biofilms were washed, probed with primary antibodies directed against DNABII proteins (light gray dots), a fluorescent secondary antibody, stained with DAPI (gray regions), and visualized via fluorescence microscopy. (FIG. 38B) Media from biofilm cultures was collected and analyzed via Western blot with a primary antibody that recognizes DNABII proteins. […] (FIG. 38C) COMSTAT quantification NTHI biofilms stained with LIVE/DEAD® and visualized with confocal microscopy after treatment with 5 mg/mL HMGB1.

[2] = test system: Z-DNA and B-DNA in the NTHI biofilm extracellular matrix; experiment: Immunofluorescence CLSM for Z-DNA / B-DNA in NTHI biofilms; format: cell-based, Non-typeable Haemophilus influenzae; conditions: HMGB1 treatment at 24 h, read at 40 h
Experimental: FIG. 31: DNase degrades B-DNA, but not Z-DNA, within the biofilm extracellular matrix. DNase (Pulmozyme; 5 units) was added at 24 h after biofilm seeding to in vitro pre-formed NTHI biofilms.
FIG. 37: HMGB1 destabilizes Z-DNA structures in the biofilm extracellular matrix. Non-typeable Haemophilus influenzae biofilms were grown in supplemented BHI media in 8 well chambered coverglass slides at 37° C. and 5% CO2. After 24 h, biofilms were treated as indicated above. After 40 h, biofilms were washed, probed with primary antibodies directed against Z-DNA (light gray dots), a fluorescent secondary antibody, stained with DAPI (gray regions), and visualized via fluorescence microscopy.
FIGS. 50A-50B: Equilibrium shift of B-DNA to Z-DNA conversion alters biofilm formation. NTHI biofilms formed for 24 h were incubated with cerium chloride (CeCl3) or chloroquine for an additional 16 h and were probed with naive or anti-Z-DNA (white) by immunofluorescence CLSM.
FIGS. 51A-51B: Equilibrium shift of B-DNA to Z-DNA conversion alters biofilm formation. NTHI biofilms formed for 24 h were incubated with cerium chloride (CeCl3) (FIG. 51A) or chloroquine (FIG. 51B) for an additional 16 h. Z-DNA was measured by IF and CLSM using anti-Z-DNA and cells were stained with the membrane stain FM4-64. Bars represent the SEM. Statistical significance compared to control was assessed by paired t-tests, *P<0.05, **P<0.01.

preformed NTHI biofilms = experiment: Disruption of pre-formed NTHI biofilms (treatment after initial growth; LIVE/DEAD, CLSM, COMSTAT); format: cell-based, Non-typeable Haemophilus influenzae; conditions: 5 mg/mL HMGB1, treated at 24 h
poly(dG-dC) substrate = poly(dG-dC) substrate nuclease degradation (gel electrophoresis); format: biochemical; conditions: in presence of protective concentrations of spermidine/polyamines
Experimental: FIG. 32: Z-DNA formation protects DNA from nuclease degradation. A poly(dG-dC) substrate was incubated with salt activated nuclease (SAN) or DNase I in increasing concentrations of NaCl, spermine, or spermidine as indicated above. Degradation products were visualized by gel electrophoresis. High salt and polyamines protect DNA from degradation through conversion to the Z-DNA form.
FIGS. 34A-34B: DNABII proteins protect DNA by shifting to Z-DNA form. (FIG. 34A) A poly(dG-dC) substrate was incubated with DNase I in increasing concentrations of NTHi HU as indicated above. Degradation products were visualized by gel electrophoresis. […] (FIG. 34B) Top: Circular dichroism spectrum of a B-DNA substrate being converted to Z-DNA by increasing concentrations of a Z-DNA catalyst (adapted from Rahmouni (1992) Mol Microbiol. 6(5):569-72). Note inversion of negative peak around 250 nm and positive peak around 280 nm. Bottom: Poly(dGdC) DNA (5 μg) was incubated with HU (15 μM) for 2 h and CD spectra collected.
FIG. 41: HMGB1 reverts polyamine-induced Z-DNA to a nuclease sensitive B-DNA state. A poly(dG-dC) substrate was incubated with spermidine and HMGB1. Degradation products were visualized by gel electrophoresis.

B. cenocepacia = experiment: Mouse lung infection with B. cenocepacia (aggregates, CFU in BAL); format: in vivo, C57BL/6 mice; conditions: 10^7 CFU i.t. with simultaneous 5 mg rHMGB1 or mHMGB1, 18 h
Experimental: (§1) (FIG. 40A) B. cenocepacia biofilms were grown in LB media in 8 well chambered coverglass slides at 37° C. and 5% CO2. After 24 h, biofilms were treated 5 mg/mL HMGB1. After a total of 40 h, biofilms were stained with LIVE/DEAD®, visualized via CLSM and analyzed by COMSTAT. Bars represent the SEM. (FIG. 40B) C57BL/6 mice were infected with 10^7 CFU i.t., and simultaneously received 5 mg rHMGB1 or mHMGB1, a C45 S non-inflammatory variant. Aggregates of B. cenocepacia were visible by fluorescence microscopy in sections probed with an α-B. cenocepacia antibody (gray). After 18 h, (FIG. 40C) CFUs were quantified in BAL. Bars represent SD. *P<0.05, ***P<0.001.

B. cenocepacia biofilms = experiment: Burkholderia cenocepacia in vitro biofilm disruption (COMSTAT); format: cell-based; conditions: 5 mg/mL HMGB1 at 24 h, total 40 h
Experimental: as §1

[3] = test system: spermidine in the NTHI biofilm matrix; experiment: Immunofluorescence for spermidine in NTHI biofilm matrix; format: cell-based, Non-typeable Haemophilus influenzae; conditions: grown 40 h in presence of DCHA
Experimental: FIG. 15: Non-typeable Haemophilus influenzae biofilms were grown for 40 h in supplemented BHI media containing additives as indicated above in 8 well chambered coverglass slides at 37° C. and 5% CO2. Biofilms were washed, probed with primary antibodies directed towards spermidine, a fluorescent secondary antibody (dark gray dots), and stained with DAPI (gray regions).
(§2) Dicyclohexylamine inhibits spermidine synthase via a competitive inhibition mechanism, i.e. through binding to the same site on the protein as the putrescine substrate. Applicants therefore hypothesized that dicyclohexylamine would inhibit NTHi biofilm development.

[4] = test system: spermidine levels in UPEC biofilms; format: cell-based
[5] = test system: eDNA scaffold structure of NTHI biofilms; experiment: eDNA scaffold structure in early (3 h) NTHI biofilms, dsDNA immunofluorescence; format: cell-based, Non-typeable Haemophilus influenzae; conditions: DCHA 50 μM
Experimental: FIGS. 3A-3C: Polyamine synthesis inhibitor reduces biofilm formation. (FIG. 3A) COMSTAT quantification of LIVE/DEAD® stained NTHI biofilms grown in the presence of dicyclohexylamine (DCHA, 50 μM), a spermidine (Spd) synthase inhibitor, Spd (1 mM), or both. Bars represent the SEM. Statistical significance compared to control was assessed by unpaired t-tests, *P<0.05. […] (FIG. 3B) Immunofluorescence microscopy images of eDNA scaffold structure in NTHI in vitro biofilms grown for 3 h in the presence of DCHA (50 μM). […] (FIG. 3C) Immunofluorescence CLSM images of NTHI in vitro biofilms grown for 40 h in the presence of DCHA. Probed for Spd (white dots in FIG. 3C lower panel) and counterstained with DAPI (gray regions).
FIG. 16: Surface attached non-typeable Haemophilus influenzae were grown for 3 h in supplemented BHI media containing additives as indicated above in Fluorodish coverglass dishes at 37° C. and 5% CO2. Biofilms were washed, probed with primary antibodies directed towards double stranded DNA and a fluorescent secondary antibody (white).
as §2

[6] = test system: Non-typeable Haemophilus influenzae biofilms; experiment: NTHI in vitro biofilm formation, additive present from seeding (LIVE/DEAD, CLSM, COMSTAT); format: cell-based; conditions: for NTHI biofilm formation (average thickness, biomass): DCHA 50 μM
Experimental: FIG. 14: Non-typeable Haemophilus influenzae biofilms were grown for 40 h in supplemented BHI medium containing additives as indicated below each bar in 8 well chambered coverglass slides at 37° C. and 5% CO2. Biofilms were washed, stained with LIVE/DEAD®, fixed, and imaged by CLSM. Biofilm parameters were quantified using COMSTAT software.
Dicyclohexylamine inhibits spermidine synthase via a competitive inhibition mechanism, i.e. through binding to the same site on the protein as the putrescine substrate. Applicants therefore hypothesized that dicyclohexylamine would inhibit NTHi biofilm development. […]

[7] = test system: Non-typeable Haemophilus influenzae; experiment: NTHI growth (absorbance at 490 nm, colony-forming units); format: cell-based; conditions: 16 h, supplemented BHI, up to 10 mM
Experimental: FIG. 13: Non-typeable Haemophilus influenzae were grown for 16 h in supplemented BHI media containing additives as indicated above in 96 well plates at 37° C. and 5% CO2. Growth was quantified by spectrophotometric absorbance at 490 nm (left) and by enumeration of colony-forming units (right).
as §2

[8] = test system: Non-typeable Haemophilus influenzae biofilms; experiment: NTHI in vitro biofilm formation, additive present from seeding (LIVE/DEAD, CLSM, COMSTAT); format: cell-based; conditions: RNase A present from seeding, 16 h
[9] = listed as Dicyclohexylamine (DCHA)
[10] = listed as dicyclohexylamine (DCHA)
[11] = listed as spermidine synthase inhibitor
[12] = 50 μM dicyclohexylamine, 40 h, COMSTAT

Question: With “HMGB1: high mobility group box 1 protein, eukaryotic chromatin protein of 215 amino acids” as the molecule, how does the “resolution of middle ear NTHI biofilms” value [1] read?
Answer: The value was “efficient resolution of adherent biofilms; also recorded: promoted clearance of pre-existing NTHI biofilms in situ”.

Question: What about the “DNABII proteins in / released from the biofilm matrix” value (DNABII proteins) of the same molecule?
Answer: The value was “DNABII proteins were released from the biofilm; also recorded: displaced DNABII proteins from the biofilm matrix”.

Question: What about the “Z-DNA content of NTHI biofilm matrix” value [2] of the same molecule?
Answer: Its value is “diminished Z-DNA content; also recorded: reduced Z-DNA structures in the biofilm matrix”.

Question: What about the NTHI biofilm disruption (preformed NTHI biofilms) of the same molecule?
Answer: The NTHI biofilm disruption was “significant biofilm disruption; also recorded: disrupts biofilms by displacing DNABII proteins”.

Question: And the “nuclease sensitivity of poly(dG-dC) substrate” value (poly(dG-dC) substrate)?
Answer: Its value is “restored nuclease sensitivity to spermidine-induced Z-DNA substrates”.

Question: And the “B. cenocepacia aggregate biofilm in lungs” value (B. cenocepacia)?
Answer: Its value is “prevented B. cenocepacia aggregate biofilm formation in the lungs of mice; also recorded: significantly disrupts B. cenocepacia biofilms in situ”.

Question: And the “B. cenocepacia biofilm disruption in vitro” value (B. cenocepacia biofilms)?
Answer: Its value is “effective at disrupting biofilms formed in vitro by Burkholderia cenocepacia; also recorded: disrupts Burkholderia cenocepacia biofilms”.

Question: For C1CCC(NC2CCCCC2)CC1 [dicyclohexylamine], which “spermidine / polyamine presence in NTHI biofilm matrix” value (“spermidine / polyamine presence” below) [3] is on record?
Answer: Its value is “statistically significant corresponding decrease in spermidine present in the biofilm matrix”.

Question: And the “spermidine / polyamine presence” value ([3]; listed as DCHA)?
Answer: Its value is “reduced extracellular polyamine incorporation into the biofilm EPS; also recorded: inhibits polyamine incorporation into the biofilm EPS”.

Question: What about the “spermidine / polyamine presence” value [3, 9] of the same molecule?
Answer: The value was “reduces spermidine levels in NTHI and UPEC biofilms”.

Question: What about the “spermidine / polyamine presence” value [3, 10] of the same molecule?
Answer: The value was “an overall decrease in spermidine levels as measured by IF”.

Question: And the “spermidine / polyamine presence” value [3, 11]?
Answer: The value was “reduced spermidine presence in the biofilm matrix”.

Question: And the “spermidine levels in UPEC biofilms” value [4]?
Answer: The value was “reduces spermidine levels in NTHI and UPEC biofilms”.

Question: And the “eDNA scaffold structure amount and complexity” value ([5]; listed as DCHA)?
Answer: The value was “inhibited production of the eDNA scaffold; also recorded: eDNA scaffold structure production is greatly reduced”.

Question: What about the “eDNA scaffold structure amount and complexity” value ([5]; listed as Dicyclohexylamine) of the same molecule?
Answer: Its value is “reduced the amount and the complexity of eDNA scaffold structures”.

Question: And the “eDNA scaffold structure amount and complexity” value [5, 11]?
Answer: Its value is “reduced both the presence and complexity of the extracellular DNA structure”.

Question: And the biofilm roughness ([6]; 50 μM dicyclohexylamine, 40 h)?
Answer: The biofilm roughness was “increasing biofilm roughness”.

Question: And the “reduction of biofilm biomass” value [6, 12]?
Answer: The value was “approximately 40%”.

Question: And the “reduction of biofilm thickness” value [6, 12]?
Answer: Its value is “approximately 40%”.

Question: And the “NTHI biofilm formation (average thickness, biomass)” value [6]?
Answer: The value was “significantly inhibited NTHi biofilm formation”.

Question: What about the “NTHI biofilm formation (average thickness, biomass)” value ([6]; listed as DCHA) of the same molecule?
Answer: The value was “inhibited biofilm biogenesis in vitro, decreasing average thickness and biomass; also recorded: Average thickness of biofilms was decreased”.

Question: And the “NTHI biofilm formation (average thickness, biomass)” value ([6]; listed as Dicyclohexylamine)?
Answer: Its value is “inhibited biofilm biogenesis”.

Question: And the “NTHI biofilm formation (average thickness, biomass)” value [6, 9]?
Answer: The value was “significantly decreased average thickness compared to sBHI control”.

Question: What about the “NTHI biofilm formation (average thickness, biomass)” value [6, 10] of the same molecule?
Answer: Its value is “a significant decrease in biofilm average thickness”.

Question: What about the NTHi growth [7] of the same molecule?
Answer: The NTHi growth was “did not affect NTHi growth up to 10 mM”.

Question: What about the NTHi growth ([7]; listed as DCHA) of the same molecule?
Answer: Its NTHi growth is “did not affect NTHI growth”.

Question: What about the NTHi growth [7, 11] of the same molecule?
Answer: The NTHi growth was “did not affect normal growth”.

B1: RNase A: ribonuclease (protein, UniProt P61823 27-150, looked up)
Ribonuclease pancreatic: KETAAAKFERQHMDSSTSAASSSNYCNQMMKSRNLTKDRCKPVNTFVHESLADVQAVCSQKNVACKNGQTNCYQSYSTMSITDCRETGSSKYPNCAYKTTQANKHIIVACEGNPYVPVHFDASV
Question: Which NTHI biofilm formation [8] does the source give for B1 here?
Answer: The NTHI biofilm formation was “stimulated biofilm formation in a dose-dependent manner”.
